{
  "source": "the supplement of paper PMC10307832",
  "assay_in_all_cases": "relative viability (nuclei count vs DMSO), 5 days (fraction); higher = more cells survive",
  "key": {"[1]": {"compound": "O=C(NC1CCNCC1)c1n[nH]cc1NC(=O)c1c(Cl)cccc1Cl [AT-7519] + CC(C)C[C@H](NC(=O)[C@H](Cc1ccccc1)NC(=O)c1cnccn1)B(O)O [Bortezomib] (partner 0.002 µM)", "how_it_was_run": "(§1)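 After 5 days of treatment, lung cancer cells in 1536-well plates were fixed and stained in a single step (final 0.05% Triton X-100, 1% formaldehyde, 1 ug/ml Hoechst) and their nuclei counted on 4× images. Treatment had been applied by pin tool the day after seeding as one drug alone or as a fixed anchor-drug dose with five library-drug doses (not always all listed) in √10 steps. Relative viability is the nuclei count of treated wells divided by that of vehicle wells, and values are medians of duplicate plates.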"}, "[2]": {"compound": "C1=CC2=C(C=C(C(=C2N=C1)O)N=NC3=CC4=C(C=C3)C=C(C=C4)S(=O)(=O)O)S(=O)(=O)O + CC(=O)c1c(C)c2cnc(Nc3ccc(N4CCNCC4)cn3)nc2n(C2CCCC2)c1=O [Palbociclib] (partner 0.5 µM)", "how_it_was_run": "as §1"}, "[3]": {"compound": "O=C(NC1CCNCC1)c1n[nH]cc1NC(=O)c1c(Cl)cccc1Cl [AT-7519] + O=C(CCCCCCC(=O)Nc1ccccc1)NO [Vorinostat] (partner 1 µM)", "how_it_was_run": "as §1"}, "[4]": {"compound": "C1=CC2=C(C=C(C(=C2N=C1)O)N=NC3=CC4=C(C=C3)C=C(C=C4)S(=O)(=O)O)S(=O)(=O)O + C[C@@H](Oc1cc(-c2cnn(C3CCNCC3)c2)cnc1N)c1c(Cl)ccc(F)c1Cl [Crizotinib] (partner 1 µM)", "how_it_was_run": "as §1"}},
  "data": [
    {"cell line": "EMC-BAC-2", "values": [
      {"measurement": "relative viability", "setting": "[1]; first compound 0.01 µM", "value": 1.04},
      {"measurement": "relative viability", "setting": "[1]; first compound 0.03162 µM", "value": 1.07},
      {"measurement": "relative viability", "setting": "[1]; first compound 0.3162 µM", "value": 1.01},
      {"measurement": "relative viability", "setting": "[1]; first compound 1 µM", "value": 1.07},
      {"measurement": "relative viability", "setting": "[2]; first compound 0.08 µM", "value": 0.528},
      {"measurement": "relative viability", "setting": "[2]; first compound 0.253 µM", "value": 0.541},
      {"measurement": "relative viability", "setting": "[2]; first compound 0.8 µM", "value": 0.509},
      {"measurement": "relative viability", "setting": "[2]; first compound 2.53 µM", "value": 0.519},
      {"measurement": "relative viability", "setting": "[2]; first compound 8 µM", "value": 0.537},
      {"measurement": "relative viability", "setting": "[3]; first compound 0.01 µM", "value": 0.424},
      {"measurement": "relative viability", "setting": "[3]; first compound 0.03162 µM", "value": 0.422},
      {"measurement": "relative viability", "setting": "[3]; first compound 0.3162 µM", "value": 0.531},
      {"measurement": "relative viability", "setting": "[3]; first compound 1 µM", "value": 0.878},
      {"measurement": "relative viability", "setting": "[4]; first compound 0.08 µM", "value": 0.777},
      {"measurement": "relative viability", "setting": "[4]; first compound 0.253 µM", "value": 0.751},
      {"measurement": "relative viability", "setting": "[4]; first compound 0.8 µM", "value": 0.704},
      {"measurement": "relative viability", "setting": "[4]; first compound 2.53 µM", "value": 0.806},
      {"measurement": "relative viability", "setting": "[4]; first compound 8 µM", "value": 0.757}
    ]},
    {"cell line": "EPLC-272H", "values": [
      {"measurement": "relative viability", "setting": "[1]; first compound 0.01 µM", "value": 1.03},
      {"measurement": "relative viability", "setting": "[1]; first compound 0.03162 µM", "value": 0.973},
      {"measurement": "relative viability", "setting": "[1]; first compound 0.3162 µM", "value": 0.723},
      {"measurement": "relative viability", "setting": "[1]; first compound 1 µM", "value": 0.812},
      {"measurement": "relative viability", "setting": "[2]; first compound 0.08 µM", "value": 0.369},
      {"measurement": "relative viability", "setting": "[2]; first compound 0.253 µM", "value": 0.31},
      {"measurement": "relative viability", "setting": "[2]; first compound 0.8 µM", "value": 0.325},
      {"measurement": "relative viability", "setting": "[2]; first compound 2.53 µM", "value": 0.371},
      {"measurement": "relative viability", "setting": "[2]; first compound 8 µM", "value": 0.316},
      {"measurement": "relative viability", "setting": "[3]; first compound 0.01 µM", "value": 0.406},
      {"measurement": "relative viability", "setting": "[3]; first compound 0.03162 µM", "value": 0.328},
      {"measurement": "relative viability", "setting": "[3]; first compound 0.3162 µM", "value": 0.36},
      {"measurement": "relative viability", "setting": "[3]; first compound 1 µM", "value": 0.0395},
      {"measurement": "relative viability", "setting": "[4]; first compound 0.08 µM", "value": 1.14},
      {"measurement": "relative viability", "setting": "[4]; first compound 0.253 µM", "value": 0.883},
      {"measurement": "relative viability", "setting": "[4]; first compound 0.8 µM", "value": 0.977},
      {"measurement": "relative viability", "setting": "[4]; first compound 2.53 µM", "value": 0.978},
      {"measurement": "relative viability", "setting": "[4]; first compound 8 µM", "value": 0.964}
    ]},
    {"cell line": "H3255", "values": [
      {"measurement": "relative viability", "setting": "[1]; first compound 0.01 µM", "value": 0.904},
      {"measurement": "relative viability", "setting": "[1]; first compound 0.03162 µM", "value": 0.825},
      {"measurement": "relative viability", "setting": "[1]; first compound 0.3162 µM", "value": 0.984},
      {"measurement": "relative viability", "setting": "[1]; first compound 1 µM", "value": 0.766},
      {"measurement": "relative viability", "setting": "[2]; first compound 0.08 µM", "value": 0.303},
      {"measurement": "relative viability", "setting": "[2]; first compound 0.253 µM", "value": 0.313},
      {"measurement": "relative viability", "setting": "[2]; first compound 0.8 µM", "value": 0.334},
      {"measurement": "relative viability", "setting": "[2]; first compound 2.53 µM", "value": 0.344},
      {"measurement": "relative viability", "setting": "[2]; first compound 8 µM", "value": 0.313},
      {"measurement": "relative viability", "setting": "[3]; first compound 0.01 µM", "value": 0.794},
      {"measurement": "relative viability", "setting": "[3]; first compound 0.03162 µM", "value": 0.816},
      {"measurement": "relative viability", "setting": "[3]; first compound 0.3162 µM", "value": 0.905},
      {"measurement": "relative viability", "setting": "[3]; first compound 1 µM", "value": 0.787},
      {"measurement": "relative viability", "setting": "[4]; first compound 0.08 µM", "value": 0.842},
      {"measurement": "relative viability", "setting": "[4]; first compound 0.253 µM", "value": 1.02},
      {"measurement": "relative viability", "setting": "[4]; first compound 0.8 µM", "value": 0.834},
      {"measurement": "relative viability", "setting": "[4]; first compound 2.53 µM", "value": 0.669},
      {"measurement": "relative viability", "setting": "[4]; first compound 8 µM", "value": 0.874}
    ]},
    {"cell line": "HARA", "values": [
      {"measurement": "relative viability", "setting": "[1]; first compound 0.01 µM", "value": 1.14},
      {"measurement": "relative viability", "setting": "[1]; first compound 0.03162 µM", "value": 1.16},
      {"measurement": "relative viability", "setting": "[1]; first compound 0.3162 µM", "value": 1.1},
      {"measurement": "relative viability", "setting": "[1]; first compound 1 µM", "value": 1.06},
      {"measurement": "relative viability", "setting": "[2]; first compound 0.08 µM", "value": 0.249},
      {"measurement": "relative viability", "setting": "[2]; first compound 0.253 µM", "value": 0.244},
      {"measurement": "relative viability", "setting": "[2]; first compound 0.8 µM", "value": 0.277},
      {"measurement": "relative viability", "setting": "[2]; first compound 2.53 µM", "value": 0.221},
      {"measurement": "relative viability", "setting": "[2]; first compound 8 µM", "value": 0.245},
      {"measurement": "relative viability", "setting": "[3]; first compound 0.01 µM", "value": 0.479},
      {"measurement": "relative viability", "setting": "[3]; first compound 0.03162 µM", "value": 0.527},
      {"measurement": "relative viability", "setting": "[3]; first compound 0.3162 µM", "value": 0.588},
      {"measurement": "relative viability", "setting": "[3]; first compound 1 µM", "value": 0.223},
      {"measurement": "relative viability", "setting": "[4]; first compound 0.08 µM", "value": 1.1},
      {"measurement": "relative viability", "setting": "[4]; first compound 0.253 µM", "value": 1.01},
      {"measurement": "relative viability", "setting": "[4]; first compound 0.8 µM", "value": 1.03},
      {"measurement": "relative viability", "setting": "[4]; first compound 2.53 µM", "value": 1.02},
      {"measurement": "relative viability", "setting": "[4]; first compound 8 µM", "value": 1.04}
    ]}
  ]
}
